Test results taken from US20220081435A1, “ANDROGEN RECEPTOR PROTEIN DEGRADERS” (THE REGENTS OF THE UNIVERSITY OF MICHIGAN, priority 2019, published 2022).

Key:
AR protein = biological target: T1, AR protein (Homo sapiens, UniProt P10275, T878A); assay: AR protein degradation in LNCaP cells (Western blotting); type: cell-based; settings: for % AR protein degradation in LNCaP Cells: treatment time 6 h, average of three independent experiments
T1 construct: The percent AR protein degradation induced by these compounds at various concentrations in LNCaP cells; host or cells: LNCaP
T1 sequence (P10275 1-920 T878A): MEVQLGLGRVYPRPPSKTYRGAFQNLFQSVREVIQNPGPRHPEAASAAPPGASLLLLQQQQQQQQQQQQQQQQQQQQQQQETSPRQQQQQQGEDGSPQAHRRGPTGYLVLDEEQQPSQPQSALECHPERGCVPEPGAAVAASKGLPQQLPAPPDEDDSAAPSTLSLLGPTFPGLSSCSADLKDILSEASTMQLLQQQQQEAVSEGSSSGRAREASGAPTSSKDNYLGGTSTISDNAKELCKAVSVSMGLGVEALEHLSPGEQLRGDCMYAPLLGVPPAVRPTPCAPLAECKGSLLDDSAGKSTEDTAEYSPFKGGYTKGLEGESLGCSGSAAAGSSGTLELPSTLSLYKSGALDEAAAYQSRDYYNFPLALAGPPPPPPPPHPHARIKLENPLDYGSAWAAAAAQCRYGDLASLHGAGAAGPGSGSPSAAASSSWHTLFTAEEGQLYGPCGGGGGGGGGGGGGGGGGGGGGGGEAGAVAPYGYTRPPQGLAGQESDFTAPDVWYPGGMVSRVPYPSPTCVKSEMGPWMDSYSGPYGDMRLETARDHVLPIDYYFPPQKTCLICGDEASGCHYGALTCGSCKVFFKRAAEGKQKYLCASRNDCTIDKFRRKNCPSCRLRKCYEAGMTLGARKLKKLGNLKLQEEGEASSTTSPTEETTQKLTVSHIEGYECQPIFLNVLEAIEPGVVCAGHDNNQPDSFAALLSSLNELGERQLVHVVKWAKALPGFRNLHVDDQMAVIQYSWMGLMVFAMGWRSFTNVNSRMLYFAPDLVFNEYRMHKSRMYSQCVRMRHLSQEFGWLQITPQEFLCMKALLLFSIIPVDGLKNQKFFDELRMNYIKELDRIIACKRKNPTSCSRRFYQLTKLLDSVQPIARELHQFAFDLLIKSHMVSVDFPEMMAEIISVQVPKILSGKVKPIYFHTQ
Summary of the method: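 LNCaP cells were cultured with 10% FBS at 37° C and lysed in RIPA buffer after treatment. AR levels were measured by Western blot. Degradation percentage was quantified by densitometry as the background-corrected AR band relative to the loading control.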

[1] = system: AR-regulated gene expression (PSA, TMPRSS2, FKBP5); assay: Suppression of AR-regulated gene expression in LNCaP cells (qRT-PCR); type: cell-based
Experimental: Quantitative Real-Time Polymerase Chain Reaction (qRT-PCR). Real-time PCR was performed using QuantStudio 7 Flex Real-Time PCR System as described previously.^43,44 RNA was purified using the Qiagen RNase-Free DNase set, then after quantification, the extracted RNA was converted to cDNA using High Capacity RNA-to-cDNA Kit from Applied Biosystems (Thermo Fisher Scientific). The levels of AR, TMPRSS2, FKBP5, PSA(KLK3) and GAPDH were quantified using TaqMan Fast Advanced Master Mix from Applied Biosystems. The level of gene expression was evaluated using comparative CT method, which compares the CT value to GAPDH (ACT) and then to vehicle control (ΔΔCT).

## Cc1ncsc1-c1ccc([C@H](CC(=O)N2CCC(N3CCC(C#Cc4ccc(C(=O)NC5C(C)(C)C(Oc6ccc(C#N)c(Cl)c6)C5(C)C)cc4)CC3)CC2)NC(=O)[C@@H]2C[C@@H](O)CN2C(=O)[C@@H](NC(=O)C2(F)CC2)C(C)(C)C)cc1 (stereo partly drawn) [Compound 34, (2S,4R)—N—((S)-3-(4-((4-(((1r,3r)-3-(3-Chloro-4-cyanophenoxy)-2,2,4,4-tetramethyl-cyclobutyl)carbamoyl)phenyl)ethynyl)-[1,4′-bipiperidin]-1′-yl)-1-(4-(4-methylthiazol-5-yl)phenyl)-3-oxopropyl)-1-((S)-2-(1-fluorocyclopropane-1-carboxamido)-3,3-dimethylbutanoyl)-4-hydroxypyrrolidine-2-carboxamide]
AR protein; 0.01 μM
  % AR protein degradation in LNCaP Cells: 89%
AR protein; 0.1 μM
  % AR protein degradation in LNCaP Cells: 99%
AR protein; 1 μM
  % AR protein degradation in LNCaP Cells: 100%
AR protein; LNCaP, 10 nM, 24 h treatment
  AR degradation: > 95%
AR protein; LNCaP, 100 nM
  Time to effective reduction of AR protein level: ≤ 2 h
AR protein; LNCaP, 100 nM, 4 h
  AR depletion with a 4 h treatment: near-complete AR depletion
AR protein; LNCaP, 24 h treatment, read-out: DC50 (drug concentration that results in 50% protein degradation)
  DC50: 860 pM
AR protein; LNCaP, at 10 nM
  AR degradation (Western blotting, dose-dependent): partial AR degradation
AR protein; LNCaP, at both 100 nM and 1 μM
  AR degradation (Western blotting, dose-dependent): essentially complete AR degradation
AR protein; LNCaP, based upon the data obtained at 10 nM
  Rank as AR degrader among 32, 34 and 35: most potent
AR protein; LNCaP, data not shown
  AR degradation after pretreatment with AR antagonist (6), VHL-d, MLN4924 or MG132: effectively blocked
[1]
  Potency relative to AR antagonist 6 in suppressing AR-regulated gene transcription: > 100 times
[1]; 10 nM
  Reduction of mRNA level of both PSA and TMPRSS2 genes: > 50%
[1]; dose-dependent, data not shown
  Expression of PSA, TMPRSS2 and FKBP5 genes: effectively suppressed
